From patent US6670446B1, “N1 modified glycopeptides” (Eli Lilly and Company, priority 1998, dated 2003)

Tests used:
Format in all cases: cell-based
[1] = tested on: Staphylococcus aureus S13E
Description: (§1) The antibacterial efficacy of the present compounds is illustrated by Table III. The minimal inhibitory concentrations (MICs) were determined using a standard broth micro-dilution assay.

[2] = tested on: Staphylococcus aureus X778; assay: MIC, standard broth micro-dilution assay, SA X778
Description: as §1

[3] = tested on: Staphylococcus epidermidis 270; assay: MIC, standard broth micro-dilution assay, SE 270
Description: as §1

Escherichia coli EC14 = assay: MIC, standard broth micro-dilution assay, EC 14
Description: as §1

[4] = tested on: Haemophilus influenzae RD; assay: MIC, standard broth micro-dilution assay, HFRD
Description: as §1

[5] = tested on: Staphylococcus haemolyticus 105; assay: MIC, standard broth micro-dilution assay, SH 105
Description: as §1

[6] = tested on: Staphylococcus aureus 489; assay: MIC, standard broth micro-dilution assay, SA 489
Description: as §1

[7] = tested on: Staphylococcus aureus SA1199A; assay: MIC, standard broth micro-dilution assay, SA 1199A
Description: as §1

[8] = tested on: Enterococcus gallinarum 245; assay: MIC, standard broth micro-dilution assay, EG 245
Description: as §1

[9] = tested on: Staphylococcus aureus 446; assay: MIC, standard broth micro-dilution assay, SA 446
Description: as §1

[10] = tested on: Sensitive Enterococcus faecium and faecalis; assay: MIC, standard broth micro-dilution assay, Sensitive; conditions: geometric mean of 4-6 isolates
Description: as §1

[11] = tested on: Staphylococcus aureus 447; assay: MIC, standard broth micro-dilution assay, SA 447
Description: as §1

[12] = tested on: Resistant Enterococcus faecium and faecalis; assay: MIC, standard broth micro-dilution assay, Resistant; conditions: geometric mean of 4-6 isolates
Description: as §1

Enterococcus faecium 180 = assay: MIC, standard broth micro-dilution assay, EF 180
Description: as §1

[13] = tested on: Staphylococcus aureus SA1199; assay: MIC, standard broth micro-dilution assay, SA 1199
Description: as §1

[14] = tested on: Enterococcus faecalis 276; assay: MIC, standard broth micro-dilution assay, EF 276
Description: as §1

[15] = tested on: Staphylococcus aureus X400; assay: MIC, standard broth micro-dilution assay, SA X400
Description: as §1

[16] = tested on: Staphylococcus haemolyticus 415; assay: MIC, standard broth micro-dilution assay, SH 415
Description: as §1

[17] = tested on: Staphylococcus aureus 491; assay: MIC, standard broth micro-dilution assay, SA 491
Description: as §1

[18] = tested on: Enterococcus faecalis 2041; assay: MIC, standard broth micro-dilution assay, EF 2041
Description: as §1

[19] = tested on: Enterococcus faecium 180-1; assay: MIC, standard broth micro-dilution assay, EF 180-1
Description: as §1

| Compound | minimal inhibitory concentration (MIC), SA S13E [1] | minimal inhibitory concentration (MIC), SA X778 [2] | minimal inhibitory concentration (MIC), SE 270 [3] | minimal inhibitory concentration (MIC), EC 14 (Escherichia coli EC14) | minimal inhibitory concentration (MIC), HFRD [4] | minimal inhibitory concentration (MIC), SH 105 [5] | minimal inhibitory concentration (MIC), SA 489 [6] | minimal inhibitory concentration (MIC), SA 1199A [7] | minimal inhibitory concentration (MIC), EG 245 [8] | minimal inhibitory concentration (MIC), SA 446 [9] | minimal inhibitory concentration (MIC), Sensitive [10] | minimal inhibitory concentration (MIC), SA 447 [11] | minimal inhibitory concentration (MIC), Resistant [12] | minimal inhibitory concentration (MIC), EF 180 (Enterococcus faecium 180) | minimal inhibitory concentration (MIC), SA 1199 [13] | minimal inhibitory concentration (MIC), EF 276 [14] | minimal inhibitory concentration (MIC), SA X400 [15] | minimal inhibitory concentration (MIC), SH 415 [16] | minimal inhibitory concentration (MIC), SA 491 [17] | minimal inhibitory concentration (MIC), EF 2041 [18] | other results |
| --- | --- | --- | --- | --- | --- | --- | --- | --- | --- | --- | --- | --- | --- | --- | --- | --- | --- | --- | --- | --- | --- |
| CC(C)CC(NC(=O)OC(C)(C)C)C(=O)NC1C(=O)NC(CC(N)=O)C(=O)NC2C(=O)NC3C(=O)NC(C(=O)NC(C(=O)O)c4cc(O)cc(O)c4-c4cc3ccc4O)C(OC3CC(C)(N)C(O)C(C)O3)c3ccc(c(Cl)c3)Oc3cc2cc(c3OC2OC(CO)C(O)C(O)C2OC2CC(C)(NCc3ccc(-c4ccccc4)cc3)C(O)C(C)O2)Oc2ccc(cc2Cl)C1O [Example 11, N^1-(N-BOC-L-leucine) derivative of N^DISACC-(p-phenylbenzyl)desleucylA82846B] | 1 | 0.5 | 0.5 | >64 | >64 | 0.5 | 2 | 1 | 1 | 1 | 1.7 | 1 | 45 | 8 | 1 | 2 | 1 | 1 | 2 | 1 | minimal inhibitory concentration (MIC), EF 180-1 [19]: 0.25 |
| CC1OC(OC2c3ccc(c(Cl)c3)Oc3cc4cc(c3OC3OC(CO)C(O)C(O)C3OC3CC(C)(NCc5ccc(-c6ccccc6)cc5)C(O)C(C)O3)Oc3ccc(cc3Cl)C(O)C(NC(=O)C3CCCN3)C(=O)NC(CC(N)=O)C(=O)NC4C(=O)NC3C(=O)NC2C(=O)NC(C(=O)O)c2cc(O)cc(O)c2-c2cc3ccc2O)CC(C)(N)C1O [Example 12, N^1-D-proline derivative of N^DISACC-(p-phenylbenzyl)desleucylA82846B] | 2 | 0.25 | 0.125 | >64 | 32 | 0.125 | 2 | 0.25 | 0.25 | 2 | 0.19 | 0.5 | 2.8 | 1 | 1 | 1 | 1 | 0.25 | 0.5 | 0.25 | minimal inhibitory concentration (MIC), EF 180-1 [19]: ≦.06 |
| CC(C)CC(N)C(=O)NC1C(=O)NC(CC(N)=O)C(=O)NC2C(=O)NC3C(=O)NC(C(=O)NC(C(=O)O)c4cc(O)cc(O)c4-c4cc3ccc4O)C(OC3CC(C)(N)C(O)C(C)O3)c3ccc(c(Cl)c3)Oc3cc2cc(c3OC2OC(CO)C(O)C(O)C2OC2CC(C)(NCc3ccc(-c4ccccc4)cc3)C(O)C(C)O2)Oc2ccc(cc2Cl)C1O [Example 13, N^1-D-leucine derivative of N^DISACC-(p-phenylbenzyl)desleucylA82846B] | 0.5 | 1 | 0.25 | >64 | 16 | 1 | 0.5 | 0.25 | ≦.06 | 1 | 0.095 | 1 | 2.4 | 0.25 | 1 | 0.5 | 0.5 | 0.5 | 1 | ≦.06 | minimal inhibitory concentration (MIC), EF 180-1 [19]: ≦.06 |
| CSCCC(NC(=O)OC(C)(C)C)C(=O)NC1C(=O)NC(CC(N)=O)C(=O)NC2C(=O)NC3C(=O)NC(C(=O)NC(C(=O)O)c4cc(O)cc(O)c4-c4cc3ccc4O)C(OC3CC(C)(N)C(O)C(C)O3)c3ccc(c(Cl)c3)Oc3cc2cc(c3OC2OC(CO)C(O)C(O)C2OC2CC(C)(NCc3ccc(-c4ccccc4)cc3)C(O)C(C)O2)Oc2ccc(cc2Cl)C1O [Example 15, N^1-(N-BOC-D-methionine) derivative of N^DISACC-(p-phenylbenzyl)desleucylA82846B] | 1 | 0.5 | 0.25 | >64 | >64 | 1 | 1 | 0.125 | 1 | 1 | 1.2 | 1 | 27 | 8 | 2 | 0.5 | 1 | 1 | 1 | 0.25 | minimal inhibitory concentration (MIC), EF 180-1 [19]: ≦.06 |
| CC(C)C[C@@H](N)C(=O)N[C@H]1C(=O)N[C@@H](CC(N)=O)C(=O)N[C@H]2C(=O)N[C@H]3C(=O)NC(C(=O)N[C@H](C(=O)O)c4cc(O)cc(O)c4-c4cc3ccc4O)[C@H](OC3CC(C)(N)C(O)C(C)O3)c3ccc(c(Cl)c3)Oc3cc2cc(c3OC2OC(CO)C(O)C(O)C2OC2CC(C)(N)C(O)C(C)O2)Oc2ccc(cc2Cl)[C@H]1O (stereo partly drawn) [Example 17, N^1-D-leucine derivative of desleucylA82846B] | 0.25 | 0.06 | 0.25 | >64 | 32 | 0.5 | 0.06 | ≦.06 | 0.06 | 0.5 | 0.5 | 0.5 | >32 | 1 | 0.25 | 0.06 | 0.06 | 1 | 0.125 | ≦.06 | minimal inhibitory concentration (MIC), EF 180-1 [19]: ≦.06 |
| CC(C)CC(NC(=O)OC(C)(C)C)C(=O)NC1C(=O)NC(CC(N)=O)C(=O)NC2C(=O)NC3C(=O)NC(C(=O)NC(C(=O)O)c4cc(O)cc(O)c4-c4cc3ccc4O)C(OC3CC(C)(N)C(O)C(C)O3)c3ccc(c(Cl)c3)Oc3cc2cc(c3OC2OC(CO)C(O)C(O)C2OC2CC(C)(NCc3ccc(-c4ccccc4)cc3)C(O)C(C)O2)Oc2ccc(cc2Cl)C1O [Example 18, N^1-(N-BOC-D-leucine) derivative of N^DISACC-(p-phenylbenzyl)desleucylA82846B] | 0.5 | 0.25 | 0.25 | >64 | 16 | 1 | 0.125 | no growth | 1 | 0.5 | 0.87 | 0.5 | 27 | 2 | 0.5 | 0.5 | 0.25 | 1 | ≦.06 | ≦.06 | minimal inhibitory concentration (MIC), EF 180-1 [19]: 0.5 |
